Measurements published in patent US20100036088A1, “Selective poly-N-substituted glycine antibiotics” (priority 2008, published 2010).
In brackets after ≈: the same amount, converted by molar mass. Read-outs that look alike come from different tables or passages of the source. Numbered stars: 1 amine (or outer) side, 2 acyl side, 3 side chain; on linkers, the order of the positions; unused ones are H or OH. Square brackets hold non-standard residues; d marks the D form. Peptide text beside a SMILES is read from it. X2 = CCC[C@H](C)N(CC(=O)[*:2])[*:1]; Nspe = C[C@H](NCC(=O)O)c1ccccc1; Nphe = O=C(O)CNCc1ccccc1; Nlys = NCCCCNCC(=O)O

Columns and labels:
human erythrocytes = assay: Hemolysis assay; assay type: cell-based
Outline: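 Peptoid serial dilutions in PBS pH 7.4 were combined with an equal volume of 20 vol % washed human red cells (heparinised blood) for 1 h at 37 °C. After dilution and pelleting at 1200 g, released haemoglobin in supernatant was read at A350, scaled between PBS and 0.2 vol % Triton X-100 controls.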

[1] = system: Proteus vulgaris ATCC 49132; assay type: cell-based; settings: ATCC 49132
Experimental: (§1) Antibacterial assays. MICs were determined according to CLSI M7-A6 protocols in a 96-well microtiter plate. In test wells, 50 μL bacterial inoculum (5×10^5 CFU/ml) in Mueller-Hinton broth (MHB) was added to 50 μL peptoid solution in MHB (prepared by 1:2 serial dilutions). Positive controls contained 50 μL inoculum and 50 μL MHB without peptoid. […] MIC values reported were reproducible between three independent experimental replicates, each consisting of two parallel trials. Broad-spectrum antimicrobial susceptibility testing was performed against BSL2 pathogens by Nova Biologicals, Inc. (Conroe, Tex.).
(§2) Broad-spectrum antibacterial assays. MICs of compounds were determined by microdilution procedure in Mueller-Hinton broth (MHB) in accordance with CLSI M7-A6 protocols in a manner similar to that described for the screen antibacterial assays. Inoculated microtiter plates were incubated at 35° C. for 24 hours prior to the result being recorded. Four ATCC strains that were used as standards are recommended by CLSI: Pseudomonas aeruginosa ATCC 27853, Escherichia coli ATCC 25922, Staphylococcus aureus ATCC 29213 and Enterococcus faecalis ATCC 29212. Other strains from the ATCC collection include Proteus vulgaris ATCC 49132, Proteus mirabilis ATCC 35659, Klebsiella pneumoniae ATCC 33495, Enterobacter aerogenes ATCC 35029 and Serratia marcescens ATCC 13880. S. aureus NRS100 (COL) is a well characterized methicillian-resistant S. aureus (MRSA) strain. The strains S. aureus VAN1 and S. aureus VAN2, vancomycin-resistant MRSA strains that were isolated in Michigan and Pennsylvania, were the first vancomycin-resistant strains clinically isolated. S. aureus NRS119 and S. aureus NRS120 are linezolid-resistant isolates from the Network on Antimicrobial Resistance in S. aureus (NARSA) collection. E. faecalis 99 and E. faecium 106 are vancomycin-resistant enterococcal strains.

Enterococcus faecalis 99 = assay type: cell-based; settings: 99
Experimental: as §1, §2

[2] = system: Staphylococcus aureus VAN2; assay type: cell-based; settings: VAN2
Experimental: as §1, §2

[3] = system: Escherichia coli ATCC 25922; assay type: cell-based; settings: ATCC 25922
Experimental: as §1, §2

[4] = system: Klebsiella pneumoniae ATCC 33495; assay type: cell-based; settings: ATCC 33495
Experimental: as §1, §2

Enterococcus faecium 106 = assay type: cell-based; settings: 106
Experimental: as §1, §2

[5] = system: Staphylococcus aureus NRS100 (COL); assay type: cell-based; settings: NRS100 (COL)
Experimental: as §1, §2

[6] = system: Enterobacter aerogenes ATCC 35029; assay type: cell-based; settings: ATCC 35029
Experimental: as §1, §2

[7] = system: Pseudomonas aeruginosa ATCC 27853; assay type: cell-based; settings: ATCC 27853
Experimental: as §1, §2

[8] = system: Staphylococcus aureus ATCC 29213; assay type: cell-based; settings: ATCC 29213
Experimental: as §1, §2

[9] = system: Enterococcus faecalis ATCC 29212; assay type: cell-based; settings: ATCC 29212
Experimental: as §1, §2

[10] = system: Staphylococcus aureus NRS119; assay type: cell-based; settings: NRS119
Experimental: as §1, §2

[11] = system: Proteus mirabilis ATCC 35659; assay type: cell-based; settings: ATCC 35659
Experimental: as §1, §2

[12] = system: Staphylococcus aureus NRS120; assay type: cell-based; settings: NRS120
Experimental: as §1, §2

[13] = system: Serratia marcescens ATCC 13880; assay type: cell-based; settings: ATCC 13880
Experimental: as §1, §2

[14] = system: Staphylococcus aureus VAN1; assay type: cell-based; settings: VAN1
Experimental: as §1, §2

B. subtilis (ATCC 6633) = assay type: cell-based; settings: ATCC 6633
Outline: (§3)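 MICs by broth microdilution per CLSI M7-A6 in cation-adjusted Mueller-Hinton broth, using 2:1 serial dilutions of peptoid and a bacterial inoculum of 1×10^6 CFU/mL. Values reproducible over three experiments, each with two parallel trials.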

E. coli (ATCC 35218) = assay type: cell-based; settings: ATCC 35218
Outline: as §3

[15] = MTS assay, metabolic inhibition; assay type: cell-based, mouse
Outline: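 NIH/3T3 cells seeded at 5,000 per well, grown a day, then exposed to serially diluted peptoids in HBSS together with MTS reagent. Absorbance at 490 nm read after 3 hours at 37° C.; mean of six replicates.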

[16] = RP-HPLC elution solvent composition as measure of molecular hydrophobicity; assay type: physicochemical
Excerpt: An initial set of 15 ampetoid analogs was synthesized to determine whether peptoids are affected by structural and sequence modifications in a manner consistent with AMP activities. The designs for ampetoids in this library were derived from two antibacterial and selective amphipathic dodecamers, 1 and 2. Peptoid 1 [H-(Nlys-Nspe-Nspe)4—NH2] is composed of 2/3 Nspe, the peptoid analog of phenylalanine, and 1/3 Nlys, the peptoid analog of lysine (see FIG. 1 for the structures of representative peptoid monomers and corresponding N-substituents). Peptoid 2 [H-(Nlys-Nssb-Nspe)4—NH2] contains 1/3 isoleucine-like Nssb monomers in place of Nspe. The variant sequences were designed to effect changes in chirality, length, hydrophobicity, charge, and amphipathicity. All of these compounds were tested for antibacterial activity against representative BSL1 Gram-negative (E. coli JM109) and Gram-positive (B. subtilis BR151) bacterial strains. As an initial measure of selectivity, the lytic activity of the peptoids was determined against human erythrocytes. Table 1 summarizes the sequences synthesized, the solvent composition at RP-HPLC elution as a relative measure of molecular hydrophobicity, and antibacterial and hemolytic activities.
Following synthesis, peptoid oligomers can be cleaved from the resin, simultaneously removing the tert-butoxycarbonyl (Boc) protecting group from Nlys residues, by treatment with 10 ml 2,2,2-trifluoroacetic acid (TFA)/triisopropylsilane/H2O (95:2.5:2.5 by volume) for 30 min. The cleavage mixture is then diluted with 25 ml 50% aqueous acetonitrile, frozen, and lyophilized. Dilution and lyophilization is repeated twice more in order to remove excess TFA. Subsequent to cleavage, peptoids are each purified to >97% homogeneity by preparative scale reversed-phase HPLC using a Waters Prep LC 4000 system, with Waters 2487 dual-wavelength UV detection, and gradient elution (solvent A, 0.1 vol % trifluoroacetic acid (TFA) in water; solvent B, 0.1 vol % TFA in acetonitrile) through a Vydac (Hysperia, Calif.) 214TP101550 C4 peptide/protein column (10-15 μm, 300 Å, 5×25 cm). Following prep HPLC, peptoid purities and crude yields were determined from analytical scale HPLC, performed with a Waters 2695 Separations Module with a Waters 2487 dual-wavelength UV detector and gradient elution (solvent A, 0.1 vol % TFA in water; solvent B, 0.1 vol % TFA in acetonitrile) through a Vydac C4 214TP53 peptide/protein column (5 μm, 300 Å, 3.2×250 mm). The precise gradient employed for HPLC depended on the identity and hydrophobicity of the oligomer in question. All analytical HPLC was performed at 0.5 ml/min flow and 58° C. Preparative HPLC was performed at 50 ml/min flow and room temperature.

Structure (SMILES)	HD10 (human erythrocytes)	HD50 (human erythrocytes)	MIC Proteus vulgaris ATCC 49132 [1]	MIC Enterococcus faecalis 99 (Enterococcus faecalis 99)	MIC Staphylococcus aureus VAN2 [2]	MIC Escherichia coli ATCC 25922 [3]	MIC Klebsiella pneumoniae ATCC 33495 [4]	MIC Enterococcus faecium 106 (Enterococcus faecium 106)	MIC Staphylococcus aureus NRS100 (COL) [5]	MIC Enterobacter aerogenes ATCC 35029 [6]	MIC Pseudomonas aeruginosa ATCC 27853 [7]	MIC Staphylococcus aureus ATCC 29213 [8]	MIC Enterococcus faecalis ATCC 29212 [9]	MIC Staphylococcus aureus NRS119 [10]	MIC P. mirabilis ATCC 35659 [11]	MIC Proteus mirabilis ATCC 35659 [11]	MIC Staphylococcus aureus NRS120 [12]	MIC S. marcescens ATCC 13880 [13]	E. coli MIC (E. coli (ATCC 35218))	IC50 [15]	also measured
C[C@@H](c1ccccc1)N(CC(N)=O)C(=O)CN(C(=O)CN(CCCCN)C(=O)[C@@H]1CCCN1C(=O)CN(C(=O)CN(CCCCN)C(=O)CN(C(=O)CN(C(=O)CN(CCCCN)C(=O)CN(C(=O)CN(C(=O)CNCCCCN)[C@@H](C)c1ccccc1)[C@@H](C)c1ccccc1)[C@@H](C)c1ccccc1)[C@@H](C)c1ccccc1)[C@@H](C)c1ccccc1)[C@@H](C)c1ccccc1 [1-Pro9, H-(Nlys-Nspe2)2-Nlys-Nspe-L-Pro-(Nlys-Nspe2)-NH2] (H-[Nlys][Nspe][Nspe][Nlys][Nspe][Nspe][Nlys][Nspe]P[Nlys][Nspe][Nspe]-NH2)	165 µM	> 200 µM	36.5 µM (≈ 64.1 µg/mL)	36.5 µM (≈ 64.1 µg/mL)	4.6 µM (≈ 8.07 µg/mL)	4.6 µM (≈ 8.07 µg/mL)	9.1 µM (≈ 16 µg/mL)	2.3 µM (≈ 4.04 µg/mL)	4.6 µM (≈ 8.07 µg/mL)	36.5 µM (≈ 64.1 µg/mL)	18.2 µM (≈ 31.9 µg/mL)	9.1 µM (≈ 16 µg/mL)	4.6 µM (≈ 8.07 µg/mL)	9.1 µM (≈ 16 µg/mL)	>128 µg/mL	>72.9 µM	9.1 µM (≈ 16 µg/mL)	>128 µg/mL	12.5 µM	24 µM	MIC Serratia marcescens ATCC 13880 [13]: >72.9 µM; MIC Staphylococcus aureus VAN1 [14]: 4.6 µM (≈ 8.07 µg/mL); B. subtilis MIC (B. subtilis (ATCC 6633)): 1.6 µM
CC(C)[C@H](C)N(CC(N)=O)C(=O)CN(C(=O)CN(CCCCN)C(=O)CN(C(=O)CN(C(=O)CN(CCCCN)C(=O)CN(C(=O)CN(C(=O)CN(CCCCN)C(=O)CN(C(=O)CN(C(=O)CNCCCCN)[C@@H](C)C(C)C)[C@@H](C)C(C)C)[C@@H](C)C(C)C)[C@@H](C)C(C)C)[C@@H](C)C(C)C)[C@@H](C)C(C)C)[C@@H](C)C(C)C [1-Nsdpall, H-(Nlys-Nsdp-Nsdp)4-NH2]	>200/>200 μM	>200/>200 μM																	50 µM	64 µM	B. subtilis MIC (B. subtilis (ATCC 6633); Table 6): 0.78 µM; E. coli MIC (E. coli (ATCC 35218); Table 6): 25 µM; HPLC elution (% ACN) ([16]; Table 5, average of three injections, linear 5%-95% acetonitrile/water (0.1% TFA) over 45 minutes, C18 column, measure of hydrophobicity): 63.2 % ACN
C[C@@H](c1ccccc1)N(CC(N)=O)C(=O)CN(Cc1ccccc1)C(=O)CN(CCCCN)C(=O)CN(C(=O)CN(Cc1ccccc1)C(=O)CN(CCCCN)C(=O)CN(C(=O)CN(Cc1ccccc1)C(=O)CN(CCCCN)C(=O)CN(C(=O)CN(Cc1ccccc1)C(=O)CNCCCCN)[C@@H](C)c1ccccc1)[C@@H](C)c1ccccc1)[C@@H](C)c1ccccc1 [1-Npm2,5,8,11, H-(Nlys-Npm-Nspe)4-NH2] (H-[Nlys][Nphe][Nspe][Nlys][Nphe][Nspe][Nlys][Nphe][Nspe][Nlys][Nphe][Nspe]-NH2)	87 µM	> 200 µM	36.3 µM (≈ 64 µg/mL)	36.3 µM (≈ 64 µg/mL)	4.5 µM (≈ 7.93 µg/mL)	4.5 µM (≈ 7.93 µg/mL)	9.1 µM (≈ 16 µg/mL)	2.3 µM (≈ 4.06 µg/mL)	4.5 µM (≈ 7.93 µg/mL)	36.3 µM (≈ 64 µg/mL)	36.3 µM (≈ 64 µg/mL)	4.5 µM (≈ 7.93 µg/mL)	4.5 µM (≈ 7.93 µg/mL)	9.1 µM (≈ 16 µg/mL)	>128 µg/mL	>72.6 µM	9.1 µM (≈ 16 µg/mL)	>128 µg/mL	6.3 µM	6.8 µM	MIC Serratia marcescens ATCC 13880 [13]: >72.6 µM; MIC Staphylococcus aureus VAN1 [14]: 4.5 µM (≈ 7.93 µg/mL); B. subtilis MIC (B. subtilis (ATCC 6633)): 1.6 µM
CCC[C@H](C)N(CC(=O)N(CC(N)=O)[C@@H](C)c1ccccc1)C(=O)CN(CCCCN)C(=O)CN(C(=O)CN(C(=O)CN(CCCCN)C(=O)CN(C(=O)CN(C(=O)CN(CCCCN)C(=O)CN(C(=O)CN(C(=O)CNCCCCN)[C@@H](C)CCC)[C@@H](C)c1ccccc1)[C@@H](C)CCC)[C@@H](C)c1ccccc1)[C@@H](C)CCC)[C@@H](C)c1ccccc1 [2-Nsap2,5,8,11] (H-[Nlys][X2][Nspe][Nlys][X2][Nspe][Nlys][X2][Nspe][Nlys][X2][Nspe]-NH2)																					HD10 (10% hemolytic dose) (human erythrocytes; red cells of human, 1 h): >120/>120 μM; HD50 (50% hemolytic dose) (human erythrocytes; red cells of human, 1 h): >120/>120 μM; HPLC elution solvent ([16]; Table 1, percent acetonitrile in water, 0.1% (v/v) TFA at HPLC elution): 48%
